This is an account of results in the supplement of paper PMC10307832.

Compound in assay [1]: CC1(C)CNc2cc(NC(=O)c3cccnc3NCc3ccncc3)ccc21 [Motesanib]
Nature of the assay: relative viability (nuclei count vs DMSO), 5 days (fraction); higher = more cells survive. The gist of the method:
(§1)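 Viability here means nuclei in treated wells divided by nuclei in vehicle wells, reported as the median across plates. Only plates with control CV below 25% and at least one doubling passed. Lung cancer cell lines in 1536-well plates were exposed to five √10-spaced library-drug doses for 5 days and counted from 4× Hoechst images in MetaXpress.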

Compound in assay [2]: C[C@@]1(C(=O)Nc2ccc(F)nc2)CCCN1c1nc(Nc2cc(C3CC3)n[nH]2)c2cccn2n1
The description is as above. Put shortly: as §1

Regarding 201T, the relative viability in assay [1] (0.01 µM) amounted to 0.982; in assay [1] (0.03162 µM), 0.971; in assay [1] (0.1 µM) it was 1.02; in assay [1] (0.3162 µM) it was 0.987; in assay [1] (1 µM), 0.963; in assay [2] (0.04 µM), 0.955. In addition, the relative viability is 0.833 in assay [2] (0.1265 µM), 0.682 in assay [2] (0.4 µM) and 0.796 in assay [2] (1.265 µM).
On to A549, for which the relative viability in assay [1] (0.01 µM) was 0.951; in assay [1] (0.03162 µM), 0.958; in assay [1] (0.1 µM) it was 1; in assay [1] (0.3162 µM), 1.01; in assay [1] (1 µM), 1.02; in assay [2] (0.04 µM) it was 0.869. The relative viability is 0.693 in assay [2] (0.1265 µM), 0.509 in assay [2] (0.4 µM) and 0.589 in assay [2] (1.265 µM).
Consider A-427, for which the relative viability in assay [1] (0.01 µM) came out at 0.944; in assay [1] (0.03162 µM) it was 1.01; in assay [1] (0.1 µM) it was 0.894; in assay [1] (0.3162 µM), 1.03; in assay [1] (1 µM), 1.06; in assay [2] (0.04 µM), 1.09. Also, the figures for the relative viability in assay [2] (0.1265 µM), in assay [2] (0.4 µM) and in assay [2] (1.265 µM) were 0.944, 0.889 and 0.797, respectively.
On to ABC-1, for which the relative viability came out at 0.919 in assay [1] (0.01 µM); 0.938 in assay [1] (0.03162 µM); 0.863 in assay [1] (0.1 µM); 1.09 in assay [1] (0.3162 µM); 0.97 in assay [1] (1 µM); 0.884 in assay [2] (0.04 µM). For the same cell line, the results for the relative viability in assay [2] (0.1265 µM), in assay [2] (0.4 µM) and in assay [2] (1.265 µM) were 0.738, 0.51 and 0.507, respectively.
As to BEN, the relative viability in assay [1] (0.01 µM) worked out at 0.902; in assay [1] (0.03162 µM), 0.964; in assay [1] (0.1 µM), 0.927; in assay [1] (0.3162 µM), 0.998; in assay [1] (1 µM), 1.19; in assay [2] (0.04 µM), 1.09. Further, the figures for the relative viability in assay [2] (0.1265 µM), in assay [2] (0.4 µM) and in assay [2] (1.265 µM) were 0.959, 0.935 and 0.929, respectively.
In the case of CAL-12T, the relative viability came out at 0.951 in assay [1] (0.01 µM); 0.975 in assay [1] (0.03162 µM); 0.967 in assay [1] (0.1 µM); 1.05 in assay [1] (0.3162 µM); 0.965 in assay [1] (1 µM); 1.03 in assay [2] (0.04 µM). The relative viability in assay [2] (0.1265 µM) came to 0.863; in assay [2] (0.4 µM) it was 0.884; in assay [2] (1.265 µM), 0.664.
Take COR-L23: the relative viability in assay [1] (0.01 µM) was determined as 1.01; in assay [1] (0.03162 µM), 0.962; in assay [1] (0.1 µM), 1.03; in assay [1] (0.3162 µM) it was 1.04; in assay [1] (1 µM), 1.07; in assay [2] (0.04 µM), 1.13. Besides, the results for the relative viability in assay [2] (0.1265 µM), in assay [2] (0.4 µM) and in assay [2] (1.265 µM) were 0.985, 0.886 and 0.774, respectively.
For the cell line COR-L 105, the relative viability in assay [1] (0.01 µM) worked out at 1.05; in assay [1] (0.03162 µM) it was 0.875; in assay [1] (0.1 µM), 0.905; in assay [1] (0.3162 µM), 0.957; in assay [1] (1 µM) it was 0.997; in assay [2] (0.04 µM) it was 1.01. Further, the results for the relative viability in assay [2] (0.1265 µM), in assay [2] (0.4 µM) and in assay [2] (1.265 µM) were 0.662, 0.781 and 0.681, respectively.
Calu-6: the relative viability was found to be 1 in assay [1] (0.01 µM); 0.98 in assay [1] (0.03162 µM); 1 in assay [1] (0.1 µM); 1.05 in assay [1] (0.3162 µM); 0.987 in assay [1] (1 µM); 1.11 in assay [2] (0.04 µM). In addition, the relative viability in assay [2] (0.1265 µM) was found to be 0.948; in assay [2] (0.4 µM), 0.884; in assay [2] (1.265 µM), 0.844.
On to ChaGo-K-1, for which the relative viability turned out to be 0.973 in assay [1] (0.01 µM); 0.931 in assay [1] (0.03162 µM); 0.932 in assay [1] (0.1 µM); 0.999 in assay [1] (0.3162 µM); 1.04 in assay [1] (1 µM); 0.955 in assay [2] (0.04 µM). For the same cell line, the results for the relative viability in assay [2] (0.1265 µM), in assay [2] (0.4 µM) and in assay [2] (1.265 µM) were 0.826, 0.899 and 0.914, respectively.
EBC-1: the relative viability in assay [1] (0.01 µM) turned out to be 1.01; in assay [1] (0.03162 µM), 0.927; in assay [1] (0.1 µM), 1.01; in assay [1] (0.3162 µM), 1.03; in assay [1] (1 µM), 0.954; in assay [2] (0.04 µM), 1.01. Moreover, the relative viability in assay [2] (0.1265 µM) turned out to be 0.772; in assay [2] (0.4 µM), 0.769; in assay [2] (1.265 µM) it was 0.664.
On to EKVX, for which the relative viability was found to be 0.919 in assay [1] (0.01 µM); 1 in assay [1] (0.03162 µM); 1.01 in assay [1] (0.1 µM); 0.928 in assay [1] (0.3162 µM); 1.08 in assay [1] (1 µM); 0.963 in assay [2] (0.04 µM). The relative viability is 0.762 in assay [2] (0.1265 µM), 0.733 in assay [2] (0.4 µM) and 0.815 in assay [2] (1.265 µM).
As to EMC-BAC-2, the relative viability in assay [1] (0.01 µM) was 0.964; in assay [1] (0.03162 µM), 1.01; in assay [1] (0.1 µM), 0.987; in assay [1] (0.3162 µM), 1.05; in assay [1] (1 µM), 0.95; in assay [2] (0.04 µM), 0.848. Also, the relative viability is 0.766 in assay [2] (0.1265 µM), 0.642 in assay [2] (0.4 µM) and 0.593 in assay [2] (1.265 µM).
Regarding EPLC-272H, the relative viability in assay [1] (0.01 µM) amounted to 0.918; in assay [1] (0.03162 µM) it was 1.04; in assay [1] (0.1 µM), 0.761; in assay [1] (0.3162 µM), 1.04; in assay [1] (1 µM), 0.976; in assay [2] (0.04 µM), 1.04. Besides, the relative viability in assay [2] (0.1265 µM) stood at 0.645; in assay [2] (0.4 µM), 0.744; in assay [2] (1.265 µM), 0.764.
